The source made the active and inactive calls. The calls are words filed in the database; no cut-off is given here.
Key:
PC-3 [1] = test: Antitumor activity against human PC3 cells xenografted in BALB/c nu/nu mouse assessed as tumor growth inhibition at 100 mg/kg, po BID measured on 25 to 30 days relative to control; assay type: functional
Matrilysin = molecular target: T1, Matrilysin (Homo sapiens, UniProt P09237)
T1 sequence (P09237 whole entry): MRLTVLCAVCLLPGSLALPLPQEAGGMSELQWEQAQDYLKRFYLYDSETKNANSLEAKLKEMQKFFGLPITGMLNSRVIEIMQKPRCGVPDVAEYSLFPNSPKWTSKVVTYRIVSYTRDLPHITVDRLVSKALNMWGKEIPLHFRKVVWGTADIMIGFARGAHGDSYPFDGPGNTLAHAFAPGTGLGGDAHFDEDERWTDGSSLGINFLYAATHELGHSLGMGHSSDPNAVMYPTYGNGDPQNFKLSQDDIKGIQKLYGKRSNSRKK

PC-3 [2] = test: Antitumor activity against human PC3 cells xenografted in BALB/c nu/nu mouse assessed as tumor growth inhibition at 200 mg/kg, po BID measured on 25 to 30 days relative to control; assay type: functional
Rattus norvegicus [3] = test: Cardioprotective activity in rat myocardial infarction model assessed inhibition of left ventricular dilation at 50 mg/kg, po qd for 4 weeks (reference value: 0.69 +/- 0.02 mL); assay type: functional, Heart left ventricle
[4] = molecular target: 72 kDa type IV collagenase (Homo sapiens, UniProt P08253)
Mus musculus = test: Toxicity in mouse assessed as mortality administered bid for 90 days; assay type: organism-based; conditions: in vivo, 2160 h
Rattus norvegicus [5] = test: Plasma concentration in rat at 20 mg/kg, po; assay type: ADME, organism-based; set-up: dose 20 mg/kg, route oral; conditions: in vivo
PC-3 [6] = test: Antitumor activity against human PC3 cells xenografted in po dosed BALB/c nu/nu mouse assessed as tumor growth inhibition administered BID measured on 25 to 30 days; assay type: functional, organism-based
Stromelysin-1 = Stromelysin-1 (Homo sapiens, UniProt P08254)
PC-3 [7] = test: Antitumor activity against human PC3 cells xenografted in BALB/c nu/nu mouse assessed as tumor growth inhibition at 25 mg/kg, po BID for 30 days measured on 25 to 30 days relative to control; assay type: functional
[8] = Cmax in rat at 20 mg/kg, po; assay type: ADME, organism-based; set-up: dose 20 mg/kg, route oral; conditions: in vivo
Neutrophil collagenase = Neutrophil collagenase (Homo sapiens, UniProt P22894)
[9] = Half life in rat at 20 mg/kg, po; assay type: ADME, organism-based; set-up: dose 20 mg/kg, route oral; conditions: in vivo
MX1 = test: Antitumor activity against human MX1 cells xenografted in cyclophosphamide-treated nude mouse adjuvant model assessed as increase in mouse survival time at 6 to 50 mg/kg, po BID measured up to 90 days; assay type: functional, organism-based
[10] = Oral bioavailability in rat at 20 mg/kg; assay type: ADME, organism-based; conditions: in vivo
Cartilage tissue = test: Ex vivo inhibition of IL-1 and oncostatin M-induced bovine nasal cartilage degradation assessed as release of hydroxproline measured up to 16 days by mass spectrometry; assay type: functional, tissue-based; conditions: Bos taurus, 384 h
Interstitial collagenase = molecular target: T2, Interstitial collagenase (Homo sapiens, UniProt P03956); assay type: cell-based, HT-1080
T2 sequence (P03956 whole entry): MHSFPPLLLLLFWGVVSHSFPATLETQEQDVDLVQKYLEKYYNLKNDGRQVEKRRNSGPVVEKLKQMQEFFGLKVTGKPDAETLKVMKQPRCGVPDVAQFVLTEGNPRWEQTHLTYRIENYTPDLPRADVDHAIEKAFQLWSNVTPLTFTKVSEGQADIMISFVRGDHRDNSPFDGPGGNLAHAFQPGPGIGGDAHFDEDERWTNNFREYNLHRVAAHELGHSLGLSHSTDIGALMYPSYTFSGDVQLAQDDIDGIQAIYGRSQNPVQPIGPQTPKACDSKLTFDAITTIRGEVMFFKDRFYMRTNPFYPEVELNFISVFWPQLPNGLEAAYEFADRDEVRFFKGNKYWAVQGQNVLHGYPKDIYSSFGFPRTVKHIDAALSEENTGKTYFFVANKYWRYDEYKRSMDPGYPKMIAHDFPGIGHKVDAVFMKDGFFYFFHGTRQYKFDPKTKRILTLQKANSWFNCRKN

[11] = Cmax in rat at 10 mg/mL, iv and po; assay type: ADME, organism-based; conditions: in vivo
Rattus norvegicus [12] = test: Plasma concentration in rat at 10 mg/mL, iv and po; assay type: ADME, organism-based; conditions: in vivo
[13] = Half life in rat at 10 mg/mL, iv and po; assay type: ADME, organism-based; conditions: in vivo
[14] = Oral bioavailability in rat at 10 mg/mL; assay type: ADME, organism-based; conditions: in vivo
Collagenase 3 = Collagenase 3 (Homo sapiens, UniProt P45452)

Sequence of 72 kDa type IV collagenase (P08253 whole entry): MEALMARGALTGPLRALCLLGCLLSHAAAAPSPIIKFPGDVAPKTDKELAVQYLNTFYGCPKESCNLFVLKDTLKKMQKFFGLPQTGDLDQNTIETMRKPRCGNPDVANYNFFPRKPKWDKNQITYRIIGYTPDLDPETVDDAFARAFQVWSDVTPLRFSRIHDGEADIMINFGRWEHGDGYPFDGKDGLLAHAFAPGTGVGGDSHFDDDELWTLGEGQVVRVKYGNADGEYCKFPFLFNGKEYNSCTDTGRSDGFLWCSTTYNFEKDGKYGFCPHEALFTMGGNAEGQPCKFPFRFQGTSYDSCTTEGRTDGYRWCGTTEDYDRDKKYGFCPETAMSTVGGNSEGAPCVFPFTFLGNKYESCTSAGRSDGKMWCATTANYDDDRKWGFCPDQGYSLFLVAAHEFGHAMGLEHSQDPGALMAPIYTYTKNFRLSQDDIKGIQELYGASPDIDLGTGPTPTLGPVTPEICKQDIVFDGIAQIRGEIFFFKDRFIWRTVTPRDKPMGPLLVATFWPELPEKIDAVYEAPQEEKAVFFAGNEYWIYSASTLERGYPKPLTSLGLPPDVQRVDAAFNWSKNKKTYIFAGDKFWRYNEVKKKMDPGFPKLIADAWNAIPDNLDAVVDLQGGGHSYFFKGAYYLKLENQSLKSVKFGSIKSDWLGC
Sequence of Neutrophil collagenase (P22894 whole entry): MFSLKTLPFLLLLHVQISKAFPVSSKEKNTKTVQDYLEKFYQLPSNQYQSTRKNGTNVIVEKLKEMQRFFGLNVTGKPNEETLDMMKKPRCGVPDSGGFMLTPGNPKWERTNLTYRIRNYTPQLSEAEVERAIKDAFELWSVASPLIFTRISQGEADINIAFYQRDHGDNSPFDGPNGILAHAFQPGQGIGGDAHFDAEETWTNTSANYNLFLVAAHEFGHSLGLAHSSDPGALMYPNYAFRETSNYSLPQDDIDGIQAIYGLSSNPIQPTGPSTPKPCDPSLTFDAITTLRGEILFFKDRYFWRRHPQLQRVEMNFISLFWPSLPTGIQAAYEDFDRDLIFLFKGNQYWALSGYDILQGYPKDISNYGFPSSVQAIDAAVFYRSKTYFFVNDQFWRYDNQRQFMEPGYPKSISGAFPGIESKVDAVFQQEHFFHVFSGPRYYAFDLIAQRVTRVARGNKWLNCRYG
Sequence of Stromelysin-1 (P08254 whole entry): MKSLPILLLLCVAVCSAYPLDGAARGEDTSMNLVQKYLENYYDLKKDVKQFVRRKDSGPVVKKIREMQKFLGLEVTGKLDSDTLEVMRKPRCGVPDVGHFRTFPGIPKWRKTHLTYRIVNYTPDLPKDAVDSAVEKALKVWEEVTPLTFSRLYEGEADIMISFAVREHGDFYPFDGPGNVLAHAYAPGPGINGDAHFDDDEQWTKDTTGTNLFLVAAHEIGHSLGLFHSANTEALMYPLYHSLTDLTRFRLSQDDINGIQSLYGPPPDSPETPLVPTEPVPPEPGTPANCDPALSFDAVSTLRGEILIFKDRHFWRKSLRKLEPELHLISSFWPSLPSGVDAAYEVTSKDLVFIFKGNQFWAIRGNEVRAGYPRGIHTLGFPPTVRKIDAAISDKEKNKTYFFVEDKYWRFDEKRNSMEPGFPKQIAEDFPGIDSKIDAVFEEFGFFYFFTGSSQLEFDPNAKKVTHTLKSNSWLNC

IC50 (Matrilysin) | IC50 [4] | Cp (Rattus norvegicus [5]) | IC50 (Stromelysin-1) | Cmax [8] | IC50 (Neutrophil collagenase) | half-life [9] | bioavailability [10] | IC50 (Interstitial collagenase) | IC50 (Collagenase 3) | SMILES | IC50 (Cartilage tissue) | other results
> 10000 nM | 0.1 nM | – | 22 nM | – | 9.4 nM | – | – | 8000 nM | 0.4 nM | O=C(NO)C1(S(=O)(=O)c2ccc(Oc3ccc(C(F)(F)F)cc3)cc2)CCOCC1 | 70 nM | Cmax [11]: 4300 ng/mL; Cp (Rattus norvegicus [12]): 1154 ng/mL; half-life [13]: 2.68 h; bioavailability [14]: 33%
> 10000 nM | < 0.1 nM | 1900 ng/mL | 42.5 nM | 52600 ng/mL | 1.5 nM | 1.05 h | 49.8% | 4600 nM | 0.2 nM | O=C(NO)C1(S(=O)(=O)c2ccc(Oc3ccc(OC(F)(F)F)cc3)cc2)CCN(Cc2cccnc2)CC1 | – | –
9000 nM | 0.2 nM | 14078 ng/mL | 23.9 nM | 32900 ng/mL | 1.9 nM | 2.99 h | 34.1% | > 10000 nM | 0.2 nM | COCCN1CCC(C(=O)NO)(S(=O)(=O)c2ccc(Oc3ccc(SC(F)(F)F)cc3)cc2)CC1 | – | –

SMILES | IC50 (Matrilysin) | IC50 [4] | Cp (Rattus norvegicus [5]) | IC50 (Stromelysin-1) | Cmax [8] | IC50 (Neutrophil collagenase) | half-life [9] | bioavailability [10] | IC50 (Interstitial collagenase) | IC50 (Collagenase 3) | IC50 (Cartilage tissue) | other results
O=C(NO)C1(S(=O)(=O)c2ccc(Oc3ccc(OC(F)(F)F)cc3)cc2)CCN(C2CC2)CC1 | 7000 nM | < 0.1 nM | 440 ng/mL | 22 nM | 4160 ng/mL | 1.2 nM | 2.85 h | 23% | 4000 nM | – | 10 nM | inhibition in vivo at 100 mg/kg (PC-3 [1]): 65%; inhibition in vivo at 200 mg/kg (PC-3 [2]): 65%; Activity (Rattus norvegicus [3]): 0.62 mL; Activity (Mus musculus): Non-toxic; inhibition (PC-3 [6]): Dose-dependent effect; inhibition in vivo at 25 mg/kg (PC-3 [7]): 49%; Activity (MX1): Active
